Test results as given in US8030354B2, “Substituted biphenyl GPR40 modulators” (Amgen Inc., priority 2007, dated 2011).

Experiments:
GPR40 [1] = target: T1, GPR40 (Homo sapiens, UniProt O14842); test: Cell-based aequorin assay (CHO cells stably expressing GPR40 and aequorin); parameters: expressed in transfected cells; host or cells: CHO cells stably transfected with GPR40 and aequorin; conditions: activation of human GPR40, CHO cells, 0.01% HSA
In short: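 CHO cells stably co-expressing GPR40 and aequorin, loaded with coelenterazine (1 ug/mL, 2 h, room temperature) in H/HBSS with 20 mM Hepes and 0.01% fatty acid-free HSA. Serially diluted compounds added; luminescence recorded over 20 s. EC50 from dose-response of maximum relative light units.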

GPR40 [2] = target: T1, GPR40; test: Inositol phosphate accumulation assay (A9_GPR40 cells); assay type: cell-based; parameters: expressed in transfected cells; host or cells: CHO cells stably transfected with GPR40 and aequorin; conditions: inositol phosphate assay, A9_GPR40 cells, 1 hour; read-out: IP3 EC50
Protocol: Briefly, the Aequorin assays were performed on doubly stable CHO cells expressing GPR40 and Aequorin DNA. […] The luminescence was recorded over a period of 20 seconds with a Microlumat luminometer (Berthold). […] The inositol phosphate assay was performed on an A9 cell line stably transfected with GPR40 (A9_GPR40). The cells were incubated with different concentrations of compounds and [^3H] inositol accumulation was measured after 1 hour.
An A9 cell line stably transfected with GPR40 (A9_GPR40) was used in IP accumulation assays. A9_GPR40 cells were plated in 96-well plates containing 20,000 cells/well in DMEM containing 10% FBS. After the cells attached to the well surface, the media was replaced with inositol free DMEM containing 10% dialyzed FBS and 1 μCi, mL ^3H-inositol and incubated for 16 hours. Compounds were diluted in HBSS/10 mM LiCl containing a desired amount of HSA and added directly to cells. Following 1 hour incubation at 37° C., the media was replaced with 100 μL of 20 mM formic acid to quench the reaction. 50 μL of the extract was then added to 100 μL of SPA beads, incubated overnight, and measured on a TopCount the following day.

T1 sequence (O14842 whole entry): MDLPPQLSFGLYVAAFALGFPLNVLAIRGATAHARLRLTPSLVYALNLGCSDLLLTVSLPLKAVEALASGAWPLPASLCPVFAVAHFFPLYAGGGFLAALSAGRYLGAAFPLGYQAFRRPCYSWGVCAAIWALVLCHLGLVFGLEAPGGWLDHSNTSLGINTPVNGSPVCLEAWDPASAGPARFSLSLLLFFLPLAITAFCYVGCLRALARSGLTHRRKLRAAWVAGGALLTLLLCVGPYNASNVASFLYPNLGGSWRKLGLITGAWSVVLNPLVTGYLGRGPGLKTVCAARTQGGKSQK

Row | EC50 (GPR40 [1]) [µM] | EC50 (GPR40 [2]) [µM] | Aequorin EC50 (GPR40 [1]) | SMILES
1 | 0.1 to 1 | 0.01 to 0.1 | – | COc1ccc(F)c(-c2ccc(COc3cccc(C(C)CC(=O)O)c3)cc2C2=CCC(C(C)(C)C)CC2)c1 (single isomer, unassigned) [Example 64.13, (3R)-3-(3-(((2-(4-(1,1-Dimethylethyl)-1-cyclohexen-1-yl)-2′-fluoro-5′-(methyloxy)-1,1′-biphenyl-4-yl)methyl)oxy)phenyl)butanoic acid or (3S)-3-(3-(((2-(4-(1,1-dimethylethyl)-1-cyclohexen-1-yl)-2′-fluoro-5′-(methyloxy)-1,1′-biphenyl-4-yl)methyl)oxy)phenyl)butanoic acid]
2 | 0.1 to 1 | 0.1 to 1 | – | CCCCCc1cc(COc2cccc(C(C)CC(=O)O)c2)ccc1-c1cc(OC)ccc1F (single isomer, unassigned) [Example 64.14, (3R)-3-(3-(((2′-Fluoro-5′-(methyloxy)-2-pentyl-1,1′-biphenyl-4-yl)methyl)oxy)phenyl)butanoic acid or (3S)-3-(3-(((2′-fluoro-5′-(methyloxy)-2-pentyl-1,1′-biphenyl-4-yl)methyl)oxy)phenyl)butanoic acid]
3 | 0.1 to 1 | 0.01 to 0.1 | – | COc1ccc(F)c(-c2ccc(COc3cccc(C(C)CC(=O)O)c3)cc2CCC2CCCCC2)c1 (single isomer, unassigned) [Example 64.15, (3R)-3-(3-(((2-(2-Cyclohexylethyl)-2′-fluoro-5′-(methyloxy)-1,1′-biphenyl-4-yl)methyl)oxy)phenyl)butanoic acid or (3S)-3-(3-(((2-(2-cyclohexylethyl)-2′-fluoro-5′-(methyloxy)-1,1′-biphenyl-4-yl)methyl)oxy)phenyl)butanoic acid]
4 | 0.1 to 1 | 0.01 to 0.1 | – | COc1ccc(F)c(-c2ccc(COc3cccc([C@H](C)CC(=O)O)c3)cc2C23CC4CC(CC(C4)C2)C3)c1 (single isomer, unassigned) [Example 64.16, (3R)-3-(3-(((2′-Fluoro-5′-(methyloxy)-2-tricyclo[3.3.1.1˜3,7˜]dec-1-yl-1,1′-biphenyl-4-yl)methyl)oxy)phenyl)butanoic acid or (3S)-3-(3-(((2′-fluoro-5′-(methyloxy)-2-tricyclo[3.3.1.1˜3,7˜]dec-1-yl-1,1′-biphenyl-4-yl)methyl)oxy)phenyl)butanoic acid]
5 | 0.1 to 1 | 0.01 to 0.1 | – | COc1ccc(F)c(-c2ccc(COc3cccc(C(C)CC(=O)O)c3)cc2C2CCCCCC2)c1 (single isomer, unassigned) [Example 64.17, (3R)-3-(3-(((2-Cycloheptyl-2′-fluoro-5′-(methyloxy)-1,1′-biphenyl-4-yl)methyl)oxy)phenyl)butanoic acid or (3S)-3-(3-(((2-cycloheptyl-2′-fluoro-5′-(methyloxy)-1,1′-biphenyl-4-yl)methyl)oxy)phenyl)butanoic acid]
6 | 0.1 to 1 | 0.1 to 1 | – | COc1ccc(F)c(-c2ccc(COc3cccc(C(C)CC(=O)O)c3)cc2C2(C)CC2)c1 (single isomer, unassigned) [Example 64.18, (3R)-3-(3-(((2′-Fluoro-2-(1-methylcyclopropyl)-5′-(methyloxy)-1,1′-biphenyl-4-yl)methyl)oxy)phenyl)butanoic acid or (3S)-3-(3-(((2′-fluoro-2-(1-methylcyclopropyl)-5′-(methyloxy)-1,1′-biphenyl-4-yl)methyl)oxy)phenyl)butanoic acid]
7 | 0.1 to 1 | 0.1 to 1 | – | COc1ccc(F)c(-c2ccc(COc3cccc(C(C)CC(=O)O)c3)cc2C2=CCCC2)c1 (single isomer, unassigned) [Example 64.19, (3R)-3-(3-(((2-(1-Cyclopenten-1-yl)-2′-fluoro-5′-(methyloxy)-1,1′-biphenyl-4-yl)methyl)oxy)phenyl)butanoic acid or (3S)-3-(3-(((2-(1-cyclopenten-1-yl)-2′-fluoro-5′-(methyloxy)-1,1′-biphenyl-4-yl)methyl)oxy)phenyl)butanoic acid]
8 | 0.1 to 1 | 0.01 to 0.1 | – | COc1cccc(-c2ccc(COc3cccc(C(C)CC(=O)O)c3)cc2C2=CCCC2(C)C)c1 (single isomer, unassigned) [Example 64.20, (3R)-3-(3-(((2-(5,5-Dimethyl-1-cyclopenten-1-yl)-3′-(methyloxy)-1,1′-biphenyl-4-yl)methyl)oxy)phenyl)butanoic acid or (3S)-3-(3-(((2-(5,5-dimethyl-1-cyclopenten-1-yl)-3′-(methyloxy)-1,1′-biphenyl-4-yl)methyl)oxy)phenyl)butanoic acid]
9 | 0.1 to 1 | 0.01 to 0.1 | – | COc1ccc(F)c(-c2ccc(COc3cccc(C(C)CC(=O)O)c3)cc2C2=CCCCC2)c1 (single isomer, unassigned) [Example 64.21, (3R)-3-(3-(((2-(1-Cyclohexen-1-yl)-2′-fluoro-5′-(methyloxy)-1,1′-biphenyl-4-yl)methyl)oxy)phenyl)butanoic acid or (3S)-3-(3-(((2-(1-cyclohexen-1-yl)-2′-fluoro-5′-(methyloxy)-1,1′-biphenyl-4-yl)methyl)oxy)phenyl)butanoic acid]
10 | 0.1 to 1 | 0.01 to 0.1 | – | COc1ccc(F)c(-c2ccc(COc3cccc(C(C)CC(=O)O)c3)cc2C2CCCC2(C)C)c1 (single isomer, unassigned) [Example 64.22, (3R)-3-(3-(((2-(2,2-Dimethylcyclopentyl)-2′-fluoro-5′-(methyloxy)-1,1′-biphenyl-4-yl)methyl)oxy)phenyl)butanoic acid or (3S)-3-(3-(((2-(2,2-dimethylcyclopentyl)-2′-fluoro-5′-(methyloxy)-1,1′-biphenyl-4-yl)methyl)oxy)phenyl)butanoic acid]
11 | 0.1 to 1 | 0.01 to 0.1 | – | CCC(CC(=O)O)c1cccc(OCc2ccc(-c3cc(OC)ccc3F)c(C3=CCCC3(C)C)c2)c1 (single isomer, unassigned) [Example 65.1, (3R)-3-(3-(((2-(5,5-Dimethyl-1-cyclopenten-1-yl)-2′-fluoro-5′-(methyloxy)-1,1′-biphenyl-4-yl)methyl)oxy)phenyl)pentanoic acid or (3S)-3-(3-(((2-(5,5-dimethyl-1-cyclopenten-1-yl)-2′-fluoro-5′-(methyloxy)-1,1′-biphenyl-4-yl)methyl)oxy)phenyl)pentanoic acid]
12 | 0.1 to 1 | 0.01 to 0.1 | – | COc1ccc(F)c(-c2ccc(COc3cccc(C(CC(=O)O)C4CC4)c3)cc2C2CCCCCC2)c1 (single isomer, unassigned) [Example 66.2, (3S)-3-(3-(((2-Cycloheptyl-2′-fluoro-5′-(methyloxy)-1,1′-biphenyl-4-yl)methyl)oxy)phenyl)-3-cyclopropylpropanoic acid or (3R)-3-(3-(((2-cycloheptyl-2′-fluoro-5′-(methyloxy)-1,1′-biphenyl-4-yl)methyl)oxy)phenyl)-3-cyclopropylpropanoic acid]
13 | – | < 0.01 | +++/ ++++ | COc1cccc(-c2ccc(COc3cccc(C(CC(=O)O)C4CC4)c3)cc2C2=CCCC2(C)C)c1 (single isomer, unassigned) [Example 66.3, (3S)-3-Cyclopropyl-3-(3-(((2-(5,5-dimethyl-1-cyclopenten-1-yl)-3′-(methyloxy)-1,1′-biphenyl-4-yl)methyl)oxy)phenyl)propanoic acid or (3R)-3-cyclopropyl-3-(3-(((2-(5,5-dimethyl-1-cyclopenten-1-yl)-3′-(methyloxy)-1,1′-biphenyl-4-yl)methyl)oxy)phenyl)propanoic acid]
